# Test results as given in patent US9434780B2, “Process for preparing human relaxin-2” (Relaxera Pharma GmbH & Co. KG i.G., priority 2011, dated 2016).
# Where no end group is shown, it is not given here.
# Legend:
# human THP-1 cells = assay: cAMP assay in human THP-1 cells; format: cell-based; conditions: FIG. 6, compared with recombinant relaxin-2
# receptor RXFP1 = molecular target: T1, receptor RXFP1 (Homo sapiens, UniProt Q9HBX9); assay: displacement of europium-labeled relaxin-2 in HEK-293T cells expressing RXFP1; format: binding; conditions: HEK-293T cells expressing natural receptor RXFP1; compared with recombinant human relaxin-2
# T1 construct: expressed in transfected cells; host or cells: HEK-293T
# T1 sequence (Q9HBX9 1-757): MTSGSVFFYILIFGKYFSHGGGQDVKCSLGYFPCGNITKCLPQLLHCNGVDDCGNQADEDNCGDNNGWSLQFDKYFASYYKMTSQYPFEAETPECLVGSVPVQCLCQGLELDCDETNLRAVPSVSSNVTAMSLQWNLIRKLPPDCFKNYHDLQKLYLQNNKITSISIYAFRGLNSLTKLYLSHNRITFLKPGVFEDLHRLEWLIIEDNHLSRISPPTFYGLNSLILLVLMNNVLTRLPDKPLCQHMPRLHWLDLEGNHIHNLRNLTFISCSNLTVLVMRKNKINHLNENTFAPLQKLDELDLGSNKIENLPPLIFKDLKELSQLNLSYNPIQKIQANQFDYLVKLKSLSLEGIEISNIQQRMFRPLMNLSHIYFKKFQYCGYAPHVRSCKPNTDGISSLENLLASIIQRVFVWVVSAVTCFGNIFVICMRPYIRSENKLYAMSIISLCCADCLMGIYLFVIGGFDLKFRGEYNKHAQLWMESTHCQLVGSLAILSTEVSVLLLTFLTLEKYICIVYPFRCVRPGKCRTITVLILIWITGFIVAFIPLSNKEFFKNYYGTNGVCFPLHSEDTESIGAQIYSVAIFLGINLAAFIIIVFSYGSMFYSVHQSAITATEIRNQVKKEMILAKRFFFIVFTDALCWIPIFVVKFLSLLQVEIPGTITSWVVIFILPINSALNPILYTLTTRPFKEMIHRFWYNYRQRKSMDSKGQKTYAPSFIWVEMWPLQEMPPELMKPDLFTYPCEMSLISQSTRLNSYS
# cardiac fibroblasts = assay: cell model of myocardial hypertrophy; format: cell-based; conditions: inhibition of cardiac fibroblast differentiation into myofibroblasts and of growth factor secretion; compared with recombinant
# From the text: In this model, relaxin inhibits the differentiation of cardiac fibroblasts into myofibroblasts and the secretion of growth factors by these cells (Dschietzig et al., 2006).
# cell models = assay: studies on cell models (bioassays); format: cell-based; conditions: compared with recombinant peptide
# [1] = storage stability of lyophilized relaxin-2; format: physicochemical; conditions: 4° C., stored for several months, compared with fresh material
# Experimental: The product is lyophilized for storage and stored at −20° C. The high stability of the preparation of highly pure relaxin-2 in lyophilized form at a temperature of 4° C. has been proven by corresponding analytics, in which fresh material was compared with material stored for several months.
Substance,activity in cAMP assay (human THP-1 cells),potency in displacing europium-labeled relaxin-2 (receptor RXFP1),potency in cell model of myocardial hypertrophy (cardiac fibroblasts),effect on cell models (cell models),stability in lyophilized form [1]
AZ02: batch of relaxin-2 prepared by chemical synthesis (chain 1 ELYSALANKCCHVGCTKRSLARFC; chain 2 DSWMEEVIKLCGRELVRAQIAICGMSTWS; non-natural residues),comparable to that of the recombinantly prepared relaxin-2,–,–,–,–
human relaxin-2 [synthetic human relaxin-2],equivalent bioactivities,same potency as recombinant human relaxin-2,as potent as recombinant human relaxin-2,"excellent effect, comparable to that of the recombinant peptide",only minor amounts of metabolites appear
recombinant human relaxin-2: recombinantly prepared human relaxin-2 used as comparator (chain 1 QLYSALANKCCHVGCTKRSLARFC; chain 2 DSWMEEVIKLCGRELVRAQIAICGMSTWS; not fully specified; ends and bridges not checked) [reference compound],equivalent bioactivities,–,–,–,–
